{
  "source": "patent US20240390350A1",
  "about": "“PHENYL CORE COMPOUNDS AS MGLU5 NEGATIVE ALLOSTERIC MODULATORS AND METHODS OF MAKING AND USING THE SAME” (Vanderbilt University, priority 2021, published 2024)",
  "data": [
    {"biological_target": "T1, human mGlu5 (Homo sapiens, UniProt P41594)", "T1 construct": "expressed in transfected cells; host or cells: HEK 293A", "T1 sequence (P41594 21-1212)": "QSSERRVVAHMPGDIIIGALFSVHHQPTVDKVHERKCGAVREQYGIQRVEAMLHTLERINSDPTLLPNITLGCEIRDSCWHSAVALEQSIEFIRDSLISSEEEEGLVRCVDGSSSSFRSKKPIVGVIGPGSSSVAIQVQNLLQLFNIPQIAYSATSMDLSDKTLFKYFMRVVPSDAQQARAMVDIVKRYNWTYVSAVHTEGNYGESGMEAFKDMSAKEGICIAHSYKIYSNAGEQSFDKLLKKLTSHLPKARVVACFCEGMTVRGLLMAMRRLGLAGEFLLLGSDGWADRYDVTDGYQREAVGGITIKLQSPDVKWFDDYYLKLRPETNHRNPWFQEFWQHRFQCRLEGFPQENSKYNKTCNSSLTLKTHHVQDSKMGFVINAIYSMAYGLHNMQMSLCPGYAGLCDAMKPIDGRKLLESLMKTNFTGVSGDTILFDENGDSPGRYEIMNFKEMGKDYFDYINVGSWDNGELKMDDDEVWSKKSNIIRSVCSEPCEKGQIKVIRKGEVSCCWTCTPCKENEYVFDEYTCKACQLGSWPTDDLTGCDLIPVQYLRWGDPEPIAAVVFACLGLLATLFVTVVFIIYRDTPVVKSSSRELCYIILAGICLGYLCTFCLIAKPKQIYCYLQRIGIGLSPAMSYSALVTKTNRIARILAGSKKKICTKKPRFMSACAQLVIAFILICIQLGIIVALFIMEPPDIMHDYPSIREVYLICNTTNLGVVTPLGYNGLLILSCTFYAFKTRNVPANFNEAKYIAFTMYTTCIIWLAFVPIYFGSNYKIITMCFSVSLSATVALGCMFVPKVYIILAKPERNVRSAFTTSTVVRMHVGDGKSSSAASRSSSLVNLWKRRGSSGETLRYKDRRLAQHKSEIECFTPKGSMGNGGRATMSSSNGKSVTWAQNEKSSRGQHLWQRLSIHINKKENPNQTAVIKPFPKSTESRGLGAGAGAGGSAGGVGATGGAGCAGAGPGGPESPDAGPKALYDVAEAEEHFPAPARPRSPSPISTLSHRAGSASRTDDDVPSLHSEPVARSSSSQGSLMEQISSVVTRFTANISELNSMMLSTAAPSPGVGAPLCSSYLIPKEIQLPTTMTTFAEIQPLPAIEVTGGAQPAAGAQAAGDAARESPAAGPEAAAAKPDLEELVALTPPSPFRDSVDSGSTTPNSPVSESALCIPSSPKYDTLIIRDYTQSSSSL", "experiment": "mGlu5 negative allosteric modulator Ca2+ flux assay in HEK 293A cells (Table 1)", "format": "cell-based", "conditions": "HEK 293A cells stably expressing mGlu5; Ca2+ flux (Fluo-4); decrease of glutamate EC80 response; read-out: hmGlu5 NAM IC50", "units": {"IC50": "µM"}, "values": [
      {"smiles": "Cc1csc(NC(=O)c2cc(-c3cnccc3C)ccc2F)n1", "note": "[Compound 1, 2-fluoro-5-(4-methylpyridin-3-yl)-N-(4-methylthiazol-2-yl)benzamide]", "IC50": 0.734},
      {"smiles": "Cc1csc(NC(=O)c2cc(-c3cnccc3C)cc(F)c2F)n1", "note": "[Compound 2, 2,3-difluoro-5-(4-methylpyridin-3-yl)-N-(4-methylthiazol-2-yl)benzamide]", "IC50": 0.136},
      {"smiles": "Cc1csc(NC(=O)c2cc(F)cc(-c3cnccc3C)c2)n1", "note": "[Compound 3, 3-fluoro-5-(4-methylpyridin-3-yl)-N-(4-methylthiazol-2-yl)benzamide]", "IC50": 0.54},
      {"smiles": "Cc1cc(C(=O)Nc2cccc(C)n2)cc(-c2cnccc2C)c1", "note": "[Compound 4, 3-methyl-N-(6-methylpyridin-2-yl)-5-(4-methylpyridin-3-yl)benzamide]", "IC50": 0.043},
      {"smiles": "Cc1cc(C(=O)Nc2ccccn2)cc(-c2cnccc2C)c1", "note": "[Compound 5, 3-Methyl-5-(4-methylpyridin-3-yl)-N-(pyridin-2-yl)benzamide]", "IC50": 0.095},
      {"smiles": "Cc1cc(C(=O)Nc2ccc(F)cn2)cc(-c2cnccc2C)c1", "note": "[Compound 6, N-(5-fluoropyridin-2-yl)-3-methyl-5-(4-methylpyridin-3-yl)benzamide]", "IC50": 0.37},
      {"smiles": "Cc1cc(C(=O)Nc2nc(C)cs2)cc(-c2cnccc2C)c1", "note": "[Compound 7, 3-Methyl-5-(4-methylpyridin-3-yl)-N-(4-methylthiazol-2-yl)benzamidecarboxamide]", "IC50": 0.127},
      {"smiles": "Cc1ccncc1-c1cc(F)c(F)c(C(=O)Nc2ccccn2)c1", "note": "[Compound 8, 2,3-difluoro-5-(4-methylpyridin-3-yl)-N-(pyridin-2-yl)benzamide]", "IC50": "> 10"},
      {"smiles": "Cc1ccncc1-c1cc(F)c(F)c(C(=O)Nc2ccc(F)cn2)c1", "note": "[Compound 9, 2,3-difluoro-N-(5-fluoropyridin-2-yl)-5-(4-methylpyridin-3-yl)benzamide]", "IC50": 1.03},
      {"smiles": "Cc1cccc(NC(=O)c2cc(-c3cnccc3C)cc(F)c2F)n1", "note": "[Compound 10, 2,3-difluoro-N-(6-methylpyridin-2-yl)-5-(4-methylpyridin-3-yl)benzamide]", "IC50": 0.322},
      {"smiles": "Cc1ccncc1-c1ccc(F)c(C(=O)Nc2ccccn2)c1", "note": "[Compound 11, 2-fluoro-5-(4-methylpyridin-3-yl)-N-(pyridin-2-yl)benzamide]", "IC50": 1.88},
      {"smiles": "Cc1ccncc1-c1ccc(F)c(C(=O)Nc2ccc(F)cn2)c1", "note": "[Compound 12, 2-fluoro-N-(5-fluoropyridin-2-yl)-5-(4-methylpyridin-3-yl)benzamide]", "IC50": 1.06},
      {"smiles": "Cc1cccc(NC(=O)c2cc(-c3cnccc3C)ccc2F)n1", "note": "[Compound 13, 2-fluoro-N-(6-methylpyridin-2-yl)-5-(4-methylpyridin-3-yl)benzamide]", "IC50": 0.366},
      {"smiles": "Cc1csc(NC(=O)c2cc(Cl)cc(-c3cnccc3C)c2)n1", "note": "[Compound 14, 3-chloro-5-(4-methylpyridin-3-yl)-N-(4-methylthiazol-2-yl)benzamide]", "IC50": 0.631},
      {"smiles": "Cc1ccncc1-c1cc(Cl)cc(C(=O)Nc2ccccn2)c1", "note": "[Compound 15, 3-chloro-5-(4-methylpyridin-3-yl)-N-(pyridin-2-yl)benzamide]", "IC50": 0.328},
      {"smiles": "Cc1cccc(NC(=O)c2cc(Cl)cc(-c3cnccc3C)c2)n1", "note": "[Compound 16, 3-chloro-N-(6-methylpyridin-2-yl)-5-(4-methylpyridin-3-yl)benzamide]", "IC50": 0.104},
      {"smiles": "Cc1ccncc1-c1cc(Cl)cc(C(=O)Nc2ccc(F)cn2)c1", "note": "[Compound 17, 3-chloro-N-(5-fluoropyridin-2-yl)-5-(4-methylpyridin-3-yl)benzamide]", "IC50": 1.86},
      {"smiles": "Cc1csc(NC(=O)c2cc(-c3cnccc3C)cc(C(F)(F)F)c2)n1", "note": "[Compound 18, 3-(4-methylpyridin-3-yl)-N-(4-methylthiazol-2-yl)-5-(trifluoromethyl)benzamide]", "IC50": "> 10"},
      {"smiles": "Cc1ccncc1-c1cc(C(=O)Nc2ccccn2)cc(C(F)(F)F)c1", "note": "[Compound 19, 3-(4-methylpyridin-3-yl)-N-(pyridin-2-yl)-5-(trifluoromethyl)benzamide]", "IC50": 2.59},
      {"smiles": "Cc1cccc(NC(=O)c2cc(-c3cnccc3C)cc(C(F)(F)F)c2)n1", "note": "[Compound 20, N-(6-methylpyridin-2-yl)-3-(4-methylpyridin-3-yl)-5-(trifluoromethyl)benzamide]", "IC50": 1.16},
      {"smiles": "Cc1ccncc1-c1cc(C(=O)Nc2ccc(F)cn2)cc(C(F)(F)F)c1", "note": "[Compound 21, N-(5-fluoropyridin-2-yl)-3-(4-methylpyridin-3-yl)-5-(trifluoromethyl)benzamide]", "IC50": 3.37},
      {"smiles": "Cc1csc(NC(=O)c2cc(C#N)cc(-c3cnccc3C)c2)n1", "note": "[Compound 22, 3-cyano-5-(4-methylpyridin-3-yl)-N-(4-methylthiazol-2-yl)benzamide]", "IC50": 0.198},
      {"smiles": "Cc1ccncc1-c1cc(C#N)cc(C(=O)Nc2ccccn2)c1", "note": "[Compound 23, 3-cyano-5-(4-methylpyridin-3-yl)-N-(pyridin-2-yl)benzamide]", "IC50": 1.21},
      {"smiles": "Cc1cccc(NC(=O)c2cc(C#N)cc(-c3cnccc3C)c2)n1", "note": "[Compound 24, 3-cyano-N-(6-methylpyridin-2-yl)-5-(4-methylpyridin-3-yl)benzamide]", "IC50": 0.273},
      {"smiles": "Cc1ccncc1-c1cc(C#N)cc(C(=O)Nc2ccc(F)cn2)c1", "note": "[Compound 25, 3-cyano-N-(5-fluoropyridin-2-yl)-5-(4-methylpyridin-3-yl)benzamide]", "IC50": 0.989},
      {"smiles": "Cc1nn(C)cc1-c1ccc(F)c(C(=O)Nc2ccc(F)cn2)c1", "note": "[Compound 26, 5-(1,3-dimethyl-1H-pyrazol-4-yl)-2-fluoro-N-(5-fluoropyridin-2-yl)benzamide]", "IC50": "> 10"},
      {"smiles": "Cn1cncc1-c1cc(F)cc(C(=O)Nc2ccc(F)cn2)c1", "note": "[Compound 27, 3-fluoro-N-(5-fluoropyridin-2-yl)-5-(1-methyl-1H-imidazol-5-yl)benzamide]", "IC50": "> 10"},
      {"smiles": "Cc1nn(C)c(C)c1-c1cc(F)cc(C(=O)Nc2ccc(F)cn2)c1", "note": "[Compound 28, 3-fluoro-N-(5-fluoropyridin-2-yl)-5-(1,3,5-trimethyl-1H-pyrazol-4-yl)benzamide]", "IC50": "> 10"},
      {"smiles": "Cc1ccncc1-c1cc(C(=O)Nc2ccc(F)cn2)cc(F)c1F", "note": "[Compound 29, 3,4-difluoro-N-(5-fluoropyridin-2-yl)-5-(4-methylpyridin-3-yl)benzamide]", "IC50": 2.24},
      {"smiles": "Cc1cccc(NC(=O)c2cc(F)c(F)c(-c3cnccc3C)c2)n1", "note": "[Compound 30, 3,4-difluoro-N-(6-methylpyridin-2-yl)-5-(4-methylpyridin-3-yl)benzamide]", "IC50": 0.101},
      {"smiles": "Cc1ccncc1-c1cc(C(=O)Nc2ccc(Cl)cn2)cc(F)c1F", "note": "[Compound 31, N-(5-chloropyridin-2-yl)-3,4-difluoro-5-(4-methylpyridin-3-yl)benzamide]", "IC50": 0.677},
      {"smiles": "Cn1nccc1-c1cc(F)c(F)c(C(=O)Nc2ccc(F)cn2)c1", "note": "[Compound 32, 2,3-difluoro-N-(5-fluoropyridin-2-yl)-5-(1-methyl-1H-pyrazol-5-yl)benzamide]", "IC50": 4.89},
      {"smiles": "Cc1nn(C)cc1-c1cc(F)c(F)c(C(=O)Nc2ccc(F)cn2)c1", "note": "[Compound 33, 5-(1,3-dimethyl-1H-pyrazol-4-yl)-2,3-difluoro-N-(5-fluoropyridin-2-yl)benzamide]", "IC50": 3.46},
      {"smiles": "O=C(Nc1ccc(F)cn1)c1cc(-c2cncc(F)c2)cc(F)c1F", "note": "[Compound 34, 2,3-difluoro-N-(5-fluoropyridin-2-yl)-5-(5-fluoropyridin-3-yl)benzamide]", "IC50": 0.161},
      {"smiles": "Cc1ncc(-c2cc(F)c(F)c(C(=O)Nc3ccc(F)cn3)c2)s1", "note": "[Compound 35, 2,3-difluoro-N-(5-fluoropyridin-2-yl)-5-(2-methylthiazol-5-yl)benzamide]", "IC50": 4.17},
      {"smiles": "Cn1nc(C(F)(F)F)cc1-c1cc(F)c(F)c(C(=O)Nc2ccc(F)cn2)c1", "note": "[Compound 36, 2,3-difluoro-N-(5-fluoropyridin-2-yl)-5-(1-methyl-3-(trifluoromethyl)-1H-pyrazol-5-yl)benzamide]", "IC50": "> 10"},
      {"smiles": "Cc1csc(NC(=O)c2cc(-c3cnccc3C)c(F)cc2F)n1", "note": "[Compound 37, 2,4-difluoro-5-(4-methylpyridin-3-yl)-N-(4-methylthiazol-2-yl)benzamide]", "IC50": 0.437},
      {"smiles": "Cc1ccncc1-c1cc(C(=O)Nc2ccc(F)cn2)c(F)cc1F", "note": "[Compound 38, 2,4-difluoro-N-(5-fluoropyridin-2-yl)-5-(4-methylpyridin-3-yl)benzamide]", "IC50": 6.42},
      {"smiles": "Cc1ccncc1-c1cc(C(=O)Nc2ccc(Cl)cn2)c(F)cc1F", "note": "[Compound 39, N-(5-chloropyridin-2-yl)-2,4-difluoro-5-(4-methylpyridin-3-yl)benzamide]", "IC50": 0.974},
      {"smiles": "Cc1csc(NC(=O)c2cc(-c3cncc(F)c3)cc(F)c2F)n1", "note": "[Compound 40, 2,3-difluoro-5-(5-fluoropyridin-3-yl)-N-(4-methylthiazol-2-yl)benzamide]", "IC50": 0.093},
      {"smiles": "O=C(Nc1cccc(Cl)n1)c1cc(-c2cncc(F)c2)cc(F)c1F", "note": "[Compound 42, N-(6-chloropyridin-2-yl)-2,3-difluoro-5-(5-fluoropyridin-3-yl)benzamide]", "IC50": 0.193},
      {"smiles": "Cc1cccc(NC(=O)c2cc(F)c(F)c(-c3ccnn3C)c2)n1", "note": "[Compound 43, 3,4-difluoro-5-(1-methyl-1H-pyrazol-5-yl)-N-(6-methylpyridin-2-yl)benzamide]", "IC50": 4.44},
      {"smiles": "Cc1cccc(NC(=O)c2cc(F)c(F)c(-c3cc(C(F)(F)F)nn3C)c2)n1", "note": "[Compound 44, 3,4-difluoro-5-(1-methyl-3-(trifluoromethyl)-1H-pyrazol-5-yl)-N-(6-methylpyridin-2-yl)benzamide]", "IC50": 3.51},
      {"smiles": "Cc1cccc(NC(=O)c2cc(F)c(F)c(-c3cnc(C)s3)c2)n1", "note": "[Compound 45, 3,4-difluoro-N-(6-methylpyridin-2-yl)-5-(2-methylthiazol-5-yl)benzamide]", "IC50": 1.23},
      {"smiles": "Cc1cccc(NC(=O)c2cc(F)c(F)c(-c3cncc(F)c3)c2)n1", "note": "[Compound 46, 3,4-difluoro-5-(5-fluoropyridin-3-yl)-N-(6-methylpyridin-2-yl)benzamide]", "IC50": 0.094},
      {"smiles": "Cc1cccc(NC(=O)c2cc(-c3cnccc3C)c(F)cc2F)n1", "note": "[Compound 47, 2,4-difluoro-N-(6-methylpyridin-2-yl)-5-(4-methylpyridin-3-yl)benzamide]", "IC50": 0.105}
    ]}
  ]
}
